Results: US4812465A, “Triazole derivatives for use as antimycotic agents” (CL Pharma Aktiengesellschaft, priority 1986, dated 1989)
≈ marks a conversion by molar mass, not a printed value.

How the values were obtained:
Assay in all cases: In vitro determination of minimum inhibitory concentration (MIC), serial dilution
Assay type in all cases: cell-based
[1] = system: Absidia ramosa; details: pH 6.0, 22° C., 14 days; for MIC: Lichtheimia ramosa, 336 h, pH 6, Absidia ramosa; for MIC Abs.ra.: Absidia ramosa
Procedure: (§1) The antimycotic activities of the compounds were measured by in vitro determination of the minimum inhibitory concentration (MIC) for yeasts, molds and dermatophytes.
(§2) 6 dermatophytes, 2 yeasts and 4 molds were used for testing with fungi, as follows:
(§3) The minimum inhibitory concentration (MIC) was determined in serial dilution tests in test tubes. The volume of the liquid nutrient medium in each test tube was 4.5 ml.
(§4) The substances were dissolved in DMSO and diluted with sterile distilled water to 10 concentrations (100, 50, 25, 12.5, 6.25, 3.12, 1.56, 0.78, 0.39 and 0.19 μg/ml). 0.5 ml of each of these dilution steps was added to liquid nutrient medium. Thus, a constant concentration of solvent in all the nutrient media was ensured, irrespective of the active compound concentration.
(§5) A comparison solution which contained only the solvent in appropriate concentration was included when carrying out each of the tests.
(§6) The individual strains were maintained on Sabouraud/beerwort agar slants and, before they were used in a test, they underwent a passage on a modified Sabouraud liquid nutrient medium. The strains were then harvested, washed and converted into a suspension of McFaerland 3 in the case of yeasts and molds and of McFaerland 4-5 in the case of dermatophytes.
(§7) The amount of material inoculated (inoculum) was 100 μl/test tube (inoculated densities: yeasts about 10^3 /ml, molds about 10^4 /ml, dermatophytes about 10^4 /ml). The pH of the liquid nutrient medium was 6.0. After inoculation had taken place the fungi were incubated at 22° C. for 14 days.
(§8) The MIC was then determined. The concentration step at which growth was no longer visible on macroscopic inspection was used for the determination of the MIC. The comparison substance used was 1-(2-(2,4-dichlorophenyl)-2-(2,4-dichlorophenylmethoxy)ethyl)-1H-imidazole(compound A).

[2] = system: Aspergillus fumigatus; details: 20160 min, pH 6
Procedure: as §1, §2, §3, §4, §5, §6, §7, §8

[3] = system: Candida albicans; details: pH 6.0, 22° C., 14 days; for MIC: 336 h, pH 6, Candida albicans, read-out: MIC C.alb
Procedure: as §1, §2, §3, §4, §5, §6, §7, §8

[4] = system: Candida tropicalis; details: 336 h, pH 6, Candida tropicalis, pH 6.0, 22° C., 14 days, read-out: MIC C.trop
Procedure: as §1, §2, §3, §4, §5, §6, §7, §8

[5] = system: Epidermophyton floccosum; details: pH 6.0, 22° C., 14 days; for MIC: 336 h, pH 6, Epidermophyton floccosum
Procedure: as §1, §2, §3, §4, §5, §6, §7, §8

[6] = system: Microsporum canis; details: pH 6.0, 22° C., 14 days; for MIC: 336 h, pH 6, Microsporum canis
Procedure: as §1, §2, §3, §4, §5, §6, §7, §8

[7] = system: Microsporum gypseum; details: pH 6.0, 22° C., 14 days; for MIC: Nannizzia gypsea, 336 h, pH 6, Microsporum gypseum, read-out: MIC Mi.gyp
Procedure: as §1, §2, §3, §4, §5, §6, §7, §8

[8] = system: Mucor mucedo minus; details: pH 6.0, 22° C., 14 days; for MIC: Mucor mucedo, 336 h, pH 6, Mucor mucedo minus
Procedure: as §1, §2, §3, §4, §5, §6, §7, §8

[9] = system: Mucor mucedo plus; details: pH 6.0, 22° C., 14 days; for MIC: Mucor mucedo, 336 h, pH 6, Mucor mucedo plus
Procedure: as §1, §2, §3, §4, §5, §6, §7, §8

[10] = system: Trichophyton mentagrophytes; details: pH 6.0, 22° C., 14 days; for MIC: 336 h, pH 6, Trichophyton mentagrophytes
Procedure: as §1, §2, §3, §4, §5, §6, §7, §8

[11] = system: Trichophyton rubrum; details: pH 6.0, 22° C., 14 days; for MIC: 336 h, pH 6, Trichophyton rubrum
Procedure: as §1, §2, §3, §4, §5, §6, §7, §8

[12] = system: Trichophyton verrucosum; details: pH 6.0, 22° C., 14 days; for MIC: 336 h, pH 6, Trichophyton verrucosum
Procedure: as §1, §2, §3, §4, §5, §6, §7, §8

SMILES	MIC [1] [µg/mL]	MIC Asp.fu. [2]	MIC [3] [µg/mL]	MIC [4] [µg/mL]	MIC [5] [µg/mL]	MIC [6] [µg/mL]	MIC [7] [µg/mL]	MIC [8] [µg/mL]	MIC [9] [µg/mL]	MIC [10] [µg/mL]	MIC [11] [µg/mL]	MIC [12] [µg/mL]	MIC Abs.ra. [1]	MIC Ep.flo [5]	MIC Tri.me. [10]	other results
Cc1cc(Cl)ccc1OCCCNC(Cn1cncn1)c1ccc(Cl)cc1Cl (stereo not drawn) [Compound 68]	100 (≈ 227 µM)	100 µg/mL (≈ 227 µM)	50 (≈ 114 µM)	25 (≈ 56.8 µM)	25 (≈ 56.8 µM)	12.5 (≈ 28.4 µM)	25 (≈ 56.8 µM)	12.5 (≈ 28.4 µM)	6.25	25 (≈ 56.8 µM)	50 (≈ 114 µM)	6.25 (≈ 14.2 µM)				
Clc1ccc(C(Cn2ccnc2)NCCCSc2ccccc2)c(Cl)c1 (stereo not drawn) [Compound 90]	12.5 (≈ 30.8 µM)	3,12 μg/ml	6.25 (≈ 15.4 µM)	3.12 (≈ 7.68 µM)	3.12 (≈ 7.68 µM)	3.12 (≈ 7.68 µM)	3.12 (≈ 7.68 µM)	3.12 (≈ 7.68 µM)	6.25	25 (≈ 61.5 µM)	1.56 (≈ 3.84 µM)	1.56 (≈ 3.84 µM)				
Clc1ccc(C(Cn2ccnc2)NCCSc2ccc(Br)cc2)c(Cl)c1 (stereo not drawn) [Compound 37]	12.5 (≈ 26.5 µM)	6,25 μg/ml	6.25 (≈ 13.3 µM)	6.25 (≈ 13.3 µM)	1.56 (≈ 3.31 µM)	6.25 (≈ 13.3 µM)	0.78 (≈ 1.66 µM)	6.25 (≈ 13.3 µM)	6.25	1.56 (≈ 3.31 µM)	1.56 (≈ 3.31 µM)	1.56 (≈ 3.31 µM)				
Clc1ccc(C(Cn2ccnc2)NCCCSc2ccc(Br)cc2)c(Cl)c1 (stereo not drawn) [Compound 1, 1-(2-(2,4-Dichlorophenyl)-2-(3-(4-bromophenylthio)propylamino)ethyl)-1H-imidazole]		1,56 μg/ml											3,12 μg/ml	0,78 μg/ml	0,39 μg/ml	MIC C.alb [3]: 3,12 μg/ml; MIC Mi.gyp ([7]; Microsporum gypseum): 0,39 μg/ml; MIC Mu.mu- ([8]; Mucor mucedo minus): 6,25 μg/ml; MIC Mu.mu+ ([9]; Mucor mucedo plus): 6,25 μg/ml; MIC Tri.ru. [11]: 0,39 μg/ml; MIC Tri.ve. [12]: 0,30 μg/ml
COc1ccc(OCCCNC(Cn2ccnc2)c2ccc(Cl)cc2Cl)cc1 (stereo not drawn) [Compound 67]	100 (≈ 238 µM)			50 (≈ 119 µM)	100 (≈ 238 µM)	50 (≈ 119 µM)	25 (≈ 59.5 µM)			100 (≈ 238 µM)		6.25 (≈ 14.9 µM)	50,0 μg/ml	50,0 μg/ml	50,0 μg/ml	MIC Mi.can [6]: 25,0 μg/ml
